According to the NIST ThermoML archive (doi:10.1021/acs.jced.5b01111):
± gives the expanded uncertainty stated by the source.

Test: wn = mass fraction of the nth substance listed
Details: 288.15 K, 100 kPa, Liquid, Pycnometric method

O=P([O-])(O)O.[K+] [monopotassium phosphate] + O
mass density (w1 = 0.1653): 1122.9 ± 2.6 kg/m3

[Cl-].[K+] [potassium chloride] + O
mass density (w1 = 0.2472): 1168.2 ± 2.9 kg/m3

O=S(=O)([O-])[O-].[K+].[K+] [potassium sulfate] + O
mass density (w1 = 0.0912): 1075.6 ± 2.4 kg/m3
